# Results as given in patent publication US20230203175A1, “Anti-CD40 Antibody Combination Treatment for Cancer” (SEAGEN INC., priority 2020, published 2023).
# Experiments:
# cytokines (IFN-γ, IL-10) = test: Cytokine production after administration to a patient; type: in vivo; settings: when administered to a patient
# FcγIII receptors = settings: as described in US20170333556A1; cited from earlier work
# murine CD40 = murine CD40 (Mus musculus, UniProt P27512); test: Recognition of murine CD40; type: binding
# CD40 signaling pathway = settings: as described in US20170333556A1; cited from earlier work
# Sequence of murine CD40 (P27512 20-289): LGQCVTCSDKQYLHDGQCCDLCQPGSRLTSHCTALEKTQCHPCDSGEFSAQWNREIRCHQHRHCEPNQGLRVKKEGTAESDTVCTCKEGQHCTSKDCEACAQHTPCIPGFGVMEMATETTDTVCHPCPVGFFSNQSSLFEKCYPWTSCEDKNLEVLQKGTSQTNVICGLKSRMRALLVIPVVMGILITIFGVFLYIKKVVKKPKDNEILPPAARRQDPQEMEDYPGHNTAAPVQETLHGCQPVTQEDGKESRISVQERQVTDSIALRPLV
substance,measurement,setting,value
SEA-CD40: non-fucosylated humanized IgG1 anti-CD40 monoclonal antibody; heavy and light chains SEQ ID NOs: 1 and 2,"production of cytokines, including interferon-γ (IFN-γ)","cytokines (IFN-γ, IL-10)",induce production of cytokines
same,"production of immune-dampening cytokines, such as interleukin-10 (IL-10)","cytokines (IFN-γ, IL-10)",does not induce production
same,binding to FcγIII receptors,FcγIII receptors,enhanced binding
same,recognition of murine CD40,murine CD40,does not recognize murine CD40
same,ability to activate the CD40 signaling pathway in immune cells,CD40 signaling pathway,enhanced ability
